According to article PMC11277489, “Novel Piperazine Derivatives of Vindoline as Anticancer Agents” (International Journal of Molecular Sciences, 2024):
Read-outs that look alike come from different tables or passages of the source.

Columns and labels:
[1] = tested on: RPMI-8226; test: NCI60 five-dose screen, Leukemia; format: cell-based; conditions: Homo sapiens; RPMI-8226, Leukemia; five-dose screen; read-out: GI50
[2] = tested on: HOP-92; test: NCI60 five-dose screen, Non-small Cell Lung Cancer; format: cell-based; conditions: Homo sapiens; HOP-92, Non-small Cell Lung Cancer; five-dose screen; read-out: GI50
[3] = tested on: NCI-H322M; test: NCI60 five-dose screen, Non-small Cell Lung Cancer; format: cell-based; conditions: Homo sapiens, Non-small Cell Lung Cancer, five-dose screen, read-out: GI50
[4] = tested on: COLO 205; test: NCI60 five-dose screen, Colon Cancer; format: cell-based; conditions: Homo sapiens; COLO 205, Colon Cancer; five-dose screen; read-out: GI50
[5] = tested on: HCT-15; test: NCI60 five-dose screen, Colon Cancer; format: cell-based; conditions: Homo sapiens; HCT-15, Colon Cancer; five-dose screen; read-out: GI50
[6] = tested on: KM12; test: NCI60 five-dose screen, Colon Cancer; format: cell-based; conditions: Homo sapiens; KM12, Colon Cancer; five-dose screen; read-out: GI50
[7] = tested on: SNB-19; test: NCI60 five-dose screen, CNS Cancer; format: cell-based; conditions: Homo sapiens; SNB-19, CNS Cancer; five-dose screen; read-out: GI50
[8] = tested on: U251; test: NCI60 five-dose screen, CNS Cancer; format: cell-based; conditions: Homo sapiens, U-251; U251, CNS Cancer; five-dose screen; read-out: GI50
[9] = tested on: LOX IMVI; test: NCI60 five-dose screen, Melanoma; format: cell-based; conditions: Homo sapiens, Melanoma, five-dose screen, read-out: GI50
[10] = tested on: M14; test: NCI60 five-dose screen, Melanoma; format: cell-based; conditions: Homo sapiens; M14, Melanoma; five-dose screen; read-out: GI50
[11] = tested on: UACC-257; test: NCI60 five-dose screen, Melanoma; format: cell-based; conditions: Homo sapiens; UACC-257, Melanoma; five-dose screen; read-out: GI50
[12] = tested on: UACC-62; test: NCI60 five-dose screen, Melanoma; format: cell-based; conditions: Homo sapiens; UACC-62, Melanoma; five-dose screen; read-out: GI50
[13] = tested on: OVCAR-3; test: NCI60 five-dose screen, Ovarian Cancer; format: cell-based; conditions: Homo sapiens; OVCAR-3, Ovarian Cancer; five-dose screen; read-out: GI50
[14] = tested on: OVCAR-4; test: NCI60 five-dose screen, Ovarian Cancer; format: cell-based; conditions: Homo sapiens; OVCAR-4, Ovarian Cancer; five-dose screen; read-out: GI50
[15] = tested on: OVCAR-8; test: NCI60 five-dose screen, Ovarian Cancer; format: cell-based; conditions: Homo sapiens; OVCAR-8, Ovarian Cancer; five-dose screen; read-out: GI50
[16] = tested on: SK-OV-3; test: NCI60 five-dose screen, Ovarian Cancer; format: cell-based; conditions: Homo sapiens; SK-OV-3, Ovarian Cancer; five-dose screen; read-out: GI50
[17] = tested on: ACHN; test: NCI60 five-dose screen, Renal Cancer; format: cell-based; conditions: Homo sapiens, Renal Cancer, five-dose screen, read-out: GI50
[18] = tested on: CAKI-1; test: NCI60 five-dose screen, Renal Cancer; format: cell-based; conditions: Homo sapiens; CAKI-1, Renal Cancer; five-dose screen; read-out: GI50
[19] = tested on: SN12C; test: NCI60 five-dose screen, Renal Cancer; format: cell-based; conditions: Homo sapiens, Renal Cancer, five-dose screen, read-out: GI50
[20] = tested on: DU-145; test: NCI60 five-dose screen, Prostate Cancer; format: cell-based; conditions: Homo sapiens; DU-145, Prostate Cancer; five-dose screen; read-out: GI50
[21] = tested on: MCF7; test: NCI60 five-dose screen, Breast Cancer; format: cell-based; conditions: Homo sapiens; MCF7, Breast Cancer; five-dose screen; read-out: GI50
[22] = tested on: MDA-MB231ATCC; test: NCI60 five-dose screen, Breast Cancer; format: cell-based; conditions: Homo sapiens, MDA-MB-231; MDA-MB231ATCC, Breast Cancer; five-dose screen; read-out: GI50
[23] = tested on: MDA-MB-468; test: NCI60 five-dose screen, Breast Cancer; format: cell-based; conditions: Homo sapiens; MDA-MB-468, Breast Cancer; five-dose screen; read-out: GI50
[24] = tested on: 60 human tumor cell lines (NCI60); test: NCI60 five-dose screen, whole panel and sub-panel means; format: cell-based; conditions: read-out: GI50 Mean
[25] = tested on: RPMI-8226; test: NCI60 one-dose screen (10 μM), Leukemia; format: cell-based; conditions: Homo sapiens; 10 μM; RPMI-8226, Leukemia; read-out: Growth percent rate
[26] = tested on: SR; test: NCI60 one-dose screen (10 μM), Leukemia; format: cell-based; conditions: Homo sapiens, 10 μM, Leukemia, read-out: Growth percent rate
[27] = tested on: HOP-62; test: NCI60 one-dose screen (10 μM), Non-small Cell Lung Cancer; format: cell-based; conditions: Homo sapiens; 10 μM; HOP-62, Non-small Cell Lung Cancer; read-out: Growth percent rate
[28] = tested on: HOP-92; test: as above; format: cell-based; conditions: Homo sapiens; 10 μM; HOP-92, Non-small Cell Lung Cancer; read-out: Growth percent rate
[29] = tested on: NCI-H226; test: as above; format: cell-based; conditions: Homo sapiens; 10 μM; NCI-H226, Non-small Cell Lung Cancer; read-out: Growth percent rate
[30] = tested on: U251; test: NCI60 one-dose screen (10 μM), CNS Cancer; format: cell-based; conditions: Homo sapiens, U-251; 10 μM; U251, CNS Cancer; read-out: Growth percent rate
[31] = tested on: UACC-62; test: NCI60 one-dose screen (10 μM), Melanoma; format: cell-based; conditions: Homo sapiens; 10 μM; UACC-62, Melanoma; read-out: Growth percent rate
[32] = tested on: OVCAR-5; test: NCI60 one-dose screen (10 μM), Ovarian Cancer; format: cell-based; conditions: Homo sapiens; 10 μM; OVCAR-5, Ovarian Cancer; read-out: Growth percent rate
[33] = tested on: NCI/ADR-RES; test: NCI60 one-dose screen (10 μM), Ovarian Cancer; format: cell-based; conditions: Homo sapiens, 10 μM, Ovarian Cancer, read-out: Growth percent rate
[34] = tested on: SK-OV-3; test: NCI60 one-dose screen (10 μM), Ovarian Cancer; format: cell-based; conditions: Homo sapiens; 10 μM; SK-OV-3, Ovarian Cancer; read-out: Growth percent rate
[35] = tested on: A498; test: NCI60 one-dose screen (10 μM), Renal Cancer; format: cell-based; conditions: Homo sapiens; 10 μM; A498, Renal Cancer; read-out: Growth percent rate
[36] = tested on: TK-10; test: NCI60 one-dose screen (10 μM), Renal Cancer; format: cell-based; conditions: Homo sapiens; 10 μM; TK-10, Renal Cancer; read-out: Growth percent rate
[37] = tested on: UO-31; test: NCI60 one-dose screen (10 μM), Renal Cancer; format: cell-based; conditions: Homo sapiens; 10 μM; UO-31, Renal Cancer; read-out: Growth percent rate
[38] = tested on: PC-3; test: NCI60 one-dose screen (10 μM), Prostate Cancer; format: cell-based; conditions: Homo sapiens; 10 μM; PC-3, Prostate Cancer; read-out: Growth percent rate
[39] = tested on: MDA-MB-231/ATCC; test: NCI60 one-dose screen (10 μM), Breast Cancer; format: cell-based, human; conditions: Homo sapiens; 10 μM; MDA-MB-231/ATCC, Breast Cancer; read-out: Growth percent rate
[40] = tested on: HS 578T; test: NCI60 one-dose screen (10 μM), Breast Cancer; format: cell-based; conditions: Homo sapiens; 10 μM; HS 578T, Breast Cancer; read-out: Growth percent rate
[41] = tested on: BT-549; test: NCI60 one-dose screen (10 μM), Breast Cancer; format: cell-based; conditions: Homo sapiens; 10 μM; BT-549, Breast Cancer; read-out: Growth percent rate
[42] = tested on: T-47D; test: NCI60 one-dose screen (10 μM), Breast Cancer; format: cell-based; conditions: Homo sapiens, T47D; 10 μM; T-47D, Breast Cancer; read-out: Growth percent rate
[43] = tested on: MDA-MB-468; test: NCI60 one-dose screen (10 μM), Breast Cancer; format: cell-based; conditions: Homo sapiens; 10 μM; MDA-MB-468, Breast Cancer; read-out: Growth percent rate
[44] = Homo sapiens, 60 cell, mean over all 60 cell lines
[45] = Homo sapiens, mean over Breast Cancer panel
[46] = Homo sapiens, mean over CNS Cancer panel
[47] = Homo sapiens, mean over Colon Cancer panel
[48] = Homo sapiens, mean over Leukemia panel
[49] = Homo sapiens, mean over Melanoma panel
[50] = Homo sapiens, mean over Non-small Cell Lung Cancer panel
[51] = Homo sapiens, mean over Ovarian Cancer panel
[52] = Homo sapiens, mean over Prostate Cancer panel
[53] = Homo sapiens, mean over Renal Cancer panel

SMILES: CC[C@]12C=CCN3CC[C@@]4(c5ccc(OC)cc5N(C)[C@H]4[C@@](O)(C(=O)OC)[C@@H]1OC(=O)CCC(=O)N1CCN(c4ccc(C(F)(F)F)cc4)CC1)[C@@H]32 [Compound 28]
- GI50 [1]: 2.57 µM
- GI50 [2]: 2.09 µM
- GI50 [3]: 10 µM
- GI50 [4]: 1.91 µM
- GI50 [5]: 3.16 µM
- GI50 [6]: 4.79 µM
- GI50 [7]: 4.37 µM
- GI50 [8]: 3.31 µM
- GI50 [9]: 3.24 µM
- GI50 [10]: 2.4 µM
- GI50 [11]: 3.89 µM
- GI50 [12]: 2.88 µM
- GI50 [13]: 3.72 µM
- GI50 [14]: 4.27 µM
- GI50 [15]: 3.72 µM
- GI50 [16]: 3.89 µM
- GI50 [17]: 3.8 µM
- GI50 [18]: 2 µM
- GI50 [19]: 4.17 µM
- GI50 [20]: 5.25 µM
- GI50 [21]: 2.95 µM
- GI50 [22]: 4.17 µM
- GI50 [23]: 1.86 µM
- GI50 [24, 44]: < 4 µM
- GI50 [24, 45]: 3.44 µM
- GI50 [24, 46]: 3.69 µM
- GI50 [24, 47]: 3.16 µM
- GI50 [24, 48]: 1.81 µM
- GI50 [24, 49]: 3.63 µM
- GI50 [24, 50]: 4.23 µM
- GI50 [24, 51]: 3.92 µM
- GI50 [24, 52]: 3.85 µM
- GI50 [24, 53]: 3.67 µM
- GI50 ([24]; mean over all 60 cell lines): 3.55 µM
- activity at 10 µM [25]: 8.8%
- activity at 10 µM [26]: 18.4%
- activity at 10 µM [27]: 30.4%
- activity at 10 µM [28]: -3.33%
- activity at 10 µM [29]: 14.9%
- activity at 10 µM [30]: 12.4%
- activity at 10 µM [31]: -75.8%
- activity at 10 µM [32]: 2.55%
- activity at 10 µM [33]: 5.44%
- activity at 10 µM [34]: 37.5%
- activity at 10 µM [35]: 21.6%
- activity at 10 µM [36]: -5.03%
- activity at 10 µM [37]: 10.3%
- activity at 10 µM [38]: 3.75%
- activity at 10 µM [39]: -47%
- activity at 10 µM [40]: 20.1%
- activity at 10 µM [41]: 12.9%
- activity at 10 µM [42]: 38.4%
- activity at 10 µM [43]: -42.8%

SMILES: CC[C@]12C=CCN3CC[C@@]4(c5ccc(OC)cc5N(C)[C@H]4[C@@](O)(C(=O)OC)[C@@H]1OC(=O)CCCN1CCN(c4ccc(C(F)(F)F)cc4)CC1)[C@@H]32 [Compound 22]
- GI50 [1]: 2.04 µM
- GI50 [2]: 1.95 µM
- GI50 [3]: 3.72 µM
- GI50 [4]: 1.78 µM
- GI50 [5]: 1.82 µM
- GI50 [6]: 2.14 µM
- GI50 [7]: 3.55 µM
- GI50 [8]: 2.24 µM
- GI50 [9]: 1.7 µM
- GI50 [10]: 1.86 µM
- GI50 [11]: 1.82 µM
- GI50 [12]: 3.31 µM
- GI50 [13]: 2.45 µM
- GI50 [14]: 3.8 µM
- GI50 [15]: 3.02 µM
- GI50 [16]: 3.72 µM
- GI50 [17]: 3.24 µM
- GI50 [18]: 2.24 µM
- GI50 [19]: 2.63 µM
- GI50 [20]: 2.88 µM
- GI50 [21]: 2 µM
- GI50 [22]: 2.82 µM
- GI50 [23]: 1.38 µM
- GI50 [24, 44]: < 4 µM
- GI50 [24, 45]: 2.51 µM
- GI50 [24, 46]: 2.47 µM
- GI50 [24, 47]: 2.02 µM
- GI50 [24, 48]: 1.77 µM
- GI50 [24, 49]: 1.98 µM
- GI50 [24, 50]: 2.88 µM
- GI50 [24, 51]: 3.05 µM
- GI50 [24, 52]: 2.67 µM
- GI50 [24, 53]: 2.59 µM
- GI50 ([24]; mean over all 60 cell lines): 2.44 µM
- activity at 10 µM [25]: -9.29%
- activity at 10 µM [26]: 14.2%
- activity at 10 µM [27]: 0.03%
- activity at 10 µM [28]: -30.9%
- activity at 10 µM [29]: -50.7%
- activity at 10 µM [30]: -88.4%
- activity at 10 µM [31]: -90.9%
- activity at 10 µM [32]: -31.1%
- activity at 10 µM [33]: -10.9%
- activity at 10 µM [34]: 23.6%
- activity at 10 µM [35]: -15.1%
- activity at 10 µM [36]: -48.5%
- activity at 10 µM [37]: 2.06%
- activity at 10 µM [38]: -25.4%
- activity at 10 µM [39]: -67.4%
- activity at 10 µM [40]: -46.2%
- activity at 10 µM [41]: -69.1%
- activity at 10 µM [42]: -11.4%
- activity at 10 µM [43]: -83.4%
